We go through two compounds from ChEMBL document CHEMBL1155727, “Prunioside A: a new terpene glycoside from Spiraea prunifolia” (J Nat Prod, 2001).

Holding throughout (assay type): functional, cell-based
Test [1] has as its system RAW264.7. As to the kind of experiment: Antiinflammatory activity in LPS-stimulated mouse RAW264.7 cells assessed as inhibition of nitric oxide production at 200 ug/mL after 18 hrs by Griess reagent-based ELISA.
In test [2] the test system is RAW264.7. In words: Antiinflammatory activity in IFN-gamma-stimulated mouse RAW264.7 cells assessed as inhibition of nitric oxide production at 200 ug/mL after 18 hrs by Griess reagent-based ELISA.
For test [3], the system named is RAW264.7. In words: Antiinflammatory activity in LPS-stimulated mouse RAW264.7 cells assessed as inhibition of nitric oxide production after 18 hrs by Griess reagent-based ELISA.
Test [4] relates to RAW264.7. In words: Antiinflammatory activity in IFN-gamma-stimulated mouse RAW264.7 cells assessed as inhibition of nitric oxide production after 18 hrs by Griess reagent-based ELISA.
Test [5] relates to RAW264.7. In words: Inhibition of iNOS mRNA expression in IFN-gamma-stimulated mouse RAW264.7 cells at 0.1 to 20 ug/mL by RT-PCR analysis.
For test [6], the system named is RAW264.7. As to the kind of experiment: Inhibition of iNOS mRNA expression in LPS-stimulated mouse RAW264.7 cells at 0.1 to 20 ug/mL by RT-PCR analysis.

Structures are written as SMILES. Active and inactive are the calls of the source. The rule behind the calls is not given here.

For the compound `C=C(C)C(OC(=O)/C=C/c1ccc(O)cc1)C1C/C(=C/CO[C@@H]2O[C@H](CO)[C@@H](O)[C@H](O)[C@H]2O)C(=O)O1` (stereo partly specified), the inhibition entry with RAW264.7 [1] and in the test with RAW264.7 [2] was “inactive” each time.

With `C=C(C)C(OC(=O)/C=C/c1ccc(OC(C)=O)cc1)C1C/C(=C/CO[C@@H]2O[C@H](COC(C)=O)[C@@H](OC(C)=O)[C@H](OC(C)=O)[C@H]2OC(C)=O)C(=O)O1` (stereo partly specified), the inhibition result in the test on RAW264.7 [3] and with RAW264.7 [4] was “Dose-dependent effect” throughout. In addition, the inhibition entry in the test on RAW264.7 [5] and in the test with RAW264.7 [6] was “Active” throughout.
